Measurements published in patent publication US5439933A (priority 1993, dated 1995).
Converted amounts (≈) assume the structure as drawn.

Key:
[1] = tested on: L1210 murine leukemia cells; assay: Cell proliferation assay (cell counts), L1210; type: cell-based; settings: Mus musculus, L1210, 72 h
Experimental: (§1) Tolytoxin and the other new scytophycin compounds are potent anticancer and antifungal agents. The cytotoxicity of tolytoxin and other new scytophycin compounds was determined using a cell proliferation assay, which tested the effect of the compounds on increases in cell numbers.
(§2) Cell lines were grown in plastic dishes (Falcon) in Eagle's basal medium supplemented with 5% newborn calf serum (KB), Fisher's medium supplemented with 10% horse serum (L1210), Dulbecco's modified Eagle's medium supplemented with 5% heat-inactivated fetal calf serum (LoVo), minimal essential medium supplemented with 2% heat-inactivated chicken serum (HEp-2), RPMI-1640 supplemented with 10% heat-inactivated fetal calf serum (T-47D, COLO-201) or 20% heat-inactivated fetal calf serum (HL-60, KATO-III), or McCoy's 5A supplemented with 10% heat-inactivated fetal calf serum (HBL-100). All cell culture media were supplemented with 50 μg/ml gentamycin sulfate. The cultures were incubated at 37° C. in a humidified atmosphere containing 5% carbon dioxide.
(§3) Cultures were exposed to graded concentrations of tolytoxin and reincubated for 72 hours in the presence of tolytoxin. Three dishes were used for each treatment. Cell numbers were determined by hemacytometer counts. The IC50 for each cell line was determined by plotting the logarithm of the tolytoxin concentration versus growth (cell number as a percentage of the control) of the treated cells.
(§4) The other new scytophycin compounds are also potent cytotoxins. For example, the IC50 of the scytophycins against KB human epidermoid carcinoma, LoVo human adenocarcinoma, and L1210 murine leukemia were determined using the cell proliferation assay described for tolytoxin.

[2] = tested on: LoVo human adenocarcinoma cells; assay: Cell proliferation assay (cell counts), LoVo; type: cell-based; settings: 72 h
Experimental: as §1, §2, §3, §4

[3] = tested on: HEp-2 human epidermoid carcinoma cells; assay: Cell proliferation assay (cell counts), HEp-2; type: cell-based; settings: Table 5, 72 hours
Experimental: as §1, §2
as §3, with “Three dishes were used for each treatment.” left out

[4] = tested on: HBL-100 human breast cells; assay: Cell proliferation assay (cell counts), HBL-100; type: cell-based; settings: Table 5, 72 hours
Experimental: as §1, §2
as §3, with “Three dishes were used for each treatment.” left out

[5] = tested on: KATO-III human gastric carcinoma cells; assay: Cell proliferation assay (cell counts), KATO-III; type: cell-based; settings: Table 5, 72 hours
Experimental: as §1, §2
as §3, with “Three dishes were used for each treatment.” left out

[6] = tested on: Human ovarian carcinoma cells (SKOV3); assay: cells; type: cell-based; settings: SK-OV-3, 48 h, read-out: IC50 SKOV3
Experimental: Human ovarian carcinoma cells (SKOV3) and a subline made multi-drug resistant by slowly increasing vinblastine in the culture medium over the course of many passages (SKVLB) were grown in Earle's basal medium (BME) containing 10% fetal calf serum. The SKVLB cells were maintained in the presence of 1 µg/mL vinblastine. The multi-drug resistant cell line is resistant to adriamycin, vinblastine, actinomycin D, and colchicine.
Cell proliferation was estimated by measurement of protein content of the cultured cells, as described by Skehan et al. (1990). Cells were plated into 24-well plates at approximately 10% confluency in BME and were allowed to attach and recover for at least 24 hours. The cells were then treated with the scytophycins or appropriate control for 48 hours. After the incubation, the medium was removed from each well and cells fixed by addition of 10% (w/v) trichloroacetic acid (TCA) (4° C.). The cells were incubated at 4° C. for one hour and then washed five times with water to remove TCA. The TCA-fixed cells were then stained for 30 minutes with 0.4% (w/v) sulforhodamine B prepared in 1% acetic acid. Following the staining, the cell layers were washed four times with 1% acetic acid. The cell layer was dissolved in 10 mM unbuffered tris-hydroxymethylaminomethane base. Absorbance of the solution was determined at 564 nm. Antiproliferative activity is manifested as decreased production of cellular protein.

[7] = tested on: Alternaria alternata 1715; assay: Antifungal agar dilution; type: cell-based; settings: Alternaria alternata, 1715, 48 h
Experimental: (§5) The new scytophycins are also useful as antifungal agents. Antimicrobial activity was determined by the agar dilution method. Tolytoxin was dissolved in 95% ethanol for addition to cooled, molten agar. Nystatin was solubilized in DMSO and diluted in distilled water. Appropriate solvent controls were also prepared. Fungal cultures were grown on Saboraud dextrose agar. Assay plates were incubated for 48 hours post-inoculation. Yeasts and filamentous fungi were incubated at 25° C.

Aspergillus oryzae = assay: Antifungal agar dilution; type: cell-based; settings: 48 h
Experimental: as §5

Bipolaris incurvata 2118 = assay: Antifungal agar dilution; type: cell-based; settings: Bipolaris incurvata, 2118, 48 h
Experimental: as §5

[8] = tested on: Calonectria critalarae 1809; assay: Antifungal agar dilution; type: cell-based; settings: 48 h
Experimental: as §5

[9] = tested on: Colletotrichum coccodes 1809; assay: Antifungal agar dilution; type: cell-based; settings: Colletotrichum coccodes, 1809, 48 h
Experimental: as §5

Penicillium notatum = assay: Antifungal agar dilution; type: cell-based; settings: Penicillium chrysogenum, 48 h
Experimental: as §5

[10] = tested on: Phyllosticta capitalensis 689-5; assay: Antifungal agar dilution; type: cell-based; settings: Phyllosticta capitalensis, 6895, 48 h
Experimental: as §5

Rhizoctonia solani 1165 = assay: Antifungal agar dilution; type: cell-based; settings: Rhizoctonia solani, 1165, 48 h
Experimental: as §5

[11] = tested on: Trichophyton mentagrophytes A23; assay: Antifungal agar dilution; type: cell-based; settings: Trichophyton mentagrophytes, A23, 48 h
Experimental: as §5

Candida albicans A26 = assay: Antifungal agar dilution; type: cell-based; settings: Candida albicans, A26, 48 h
Experimental: as §5
(§6) Activity was determined using the method described above for tolytoxin.

[12] = tested on: Phytophthora nicotianae H729; assay: Antifungal agar dilution; type: cell-based; settings: Phytophthora nicotianae, 48 h
Experimental: as §5, §6

Saccharomyces cerevisae = assay: Antifungal agar dilution; type: cell-based; settings: Saccharomyces, 48 h
Experimental: as §5, §6

Sclerotium rofsii 2133 = assay: Antifungal agar dilution; type: cell-based; settings: 48 h
Experimental: as §5, §6

[13] = tested on: Thielaviopsis paradoxa 1215; assay: Antifungal agar dilution; type: cell-based; settings: Thielaviopsis paradoxa, 1215, 48 h
Experimental: as §5, §6

[14] = Toxicity in mice, intraperitoneal; settings: mouse, in vivo, ip, Swiss Webster mice
Experimental: In view of the cytotoxic effects observed with the new scytophycins, an experiment was performed to determine the toxicity level in an animal model. Various doses of tolytoxin were administered to Swiss Webster mice by the intraperitoneal route.

COC1CC2C=CCC(CC(OC)C3(CO3)C(OC)CC(OC)C(C)C(C(C)C(O)C(C)CCC(=O)C(C)C(OC)C(C)/C=C/N(C)C=O)OC(=O)/C=C/C(C)=C/C1O)O2 (stereo not drawn) [Tolytoxin, 6-hydroxy-7-O-methylscytophycin B]
IC50 [1]: 3.9 nM | IC50 [2]: 8.4 nM | IC50 [3]: 2.3 nM | IC50 [4]: 2.4 nM | IC50 [5]: 0.78 nM | IC50 [6]: 25 nM | MIC [7]: 4 nM (≈ 3.4 ng/mL) | MIC (Aspergillus oryzae): 0.5 nM (≈ 0.425 ng/mL) | MIC (Bipolaris incurvata 2118): 2 nM (≈ 1.7 ng/mL) | MIC [8]: 2 nM (≈ 1.7 ng/mL) | MIC [9]: 4 nM (≈ 3.4 ng/mL) | MIC (Penicillium notatum): 0.25 nM (≈ 0.213 ng/mL) | MIC [10]: 0.5 nM (≈ 0.425 ng/mL) | MIC (Rhizoctonia solani 1165): 0.25 nM (≈ 0.213 ng/mL) | MIC [11]: 8 nM (≈ 6.8 ng/mL) | MIC (Candida albicans A26): 8 nM (≈ 6.8 ng/mL) | MIC [12]: 4 nM (≈ 3.4 ng/mL) | MIC (Saccharomyces cerevisae): 4 nM (≈ 3.4 ng/mL) | MIC (Sclerotium rofsii 2133): 1 nM (≈ 0.85 ng/mL) | MIC [13]: 1 nM (≈ 0.85 ng/mL) | LD50 [14]: ~1.5 mg/kg
